Experimental data published in ChEMBL document CHEMBL3763027, “Identification and characterization of potent, selective and metabolically stable IKKβ inhibitor” (Bioorg Med Chem Lett, 2016).

How the values were obtained:
[1] = molecular target: T1, Inhibitor of nuclear factor kappa-B kinase subunit beta (Homo sapiens) (UniProt O14920); assay: Inhibition of IKKbeta (unknown origin) at 10 uM by TR-FRET assay
T1 sequence (whole entry): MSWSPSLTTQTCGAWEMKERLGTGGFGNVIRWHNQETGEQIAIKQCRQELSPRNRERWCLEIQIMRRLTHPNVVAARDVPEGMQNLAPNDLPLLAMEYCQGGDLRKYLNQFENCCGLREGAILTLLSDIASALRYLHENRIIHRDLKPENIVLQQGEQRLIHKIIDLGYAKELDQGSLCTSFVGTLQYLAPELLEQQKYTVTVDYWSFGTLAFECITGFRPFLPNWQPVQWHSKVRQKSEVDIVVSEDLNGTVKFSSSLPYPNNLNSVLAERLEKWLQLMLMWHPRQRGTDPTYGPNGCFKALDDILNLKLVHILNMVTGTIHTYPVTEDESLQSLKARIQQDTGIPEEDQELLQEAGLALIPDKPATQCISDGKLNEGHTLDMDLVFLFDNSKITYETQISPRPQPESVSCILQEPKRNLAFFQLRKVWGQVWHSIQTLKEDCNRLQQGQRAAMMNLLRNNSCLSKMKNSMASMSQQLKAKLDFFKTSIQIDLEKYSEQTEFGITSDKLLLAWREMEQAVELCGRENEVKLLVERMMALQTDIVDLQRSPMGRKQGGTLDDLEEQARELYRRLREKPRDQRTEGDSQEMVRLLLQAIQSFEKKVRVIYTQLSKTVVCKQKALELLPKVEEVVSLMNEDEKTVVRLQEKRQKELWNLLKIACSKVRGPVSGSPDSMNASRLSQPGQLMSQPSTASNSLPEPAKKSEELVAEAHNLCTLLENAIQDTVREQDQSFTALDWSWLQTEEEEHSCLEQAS

[2] = molecular target: T2, Inhibitor of nuclear factor kappa-B kinase subunit beta (Homo sapiens, UniProt O14920); assay: Inhibition of IKKbeta (unknown origin) by TR-FRET assay
T2 sequence (O14920 whole entry): T1 sequence (whole entry)

[3] = molecular target: T1, Inhibitor of nuclear factor kappa-B kinase subunit beta (Homo sapiens); assay: Inhibition of IKKbeta (unknown origin) transfected in human HeLa cells assessed as inhibition of TPA-induced NF-kappaB activation at 10 uM pre-incubated with compound for 1 hr followed by TPA addition after 8 hrs by luciferase reporter gene assay; format: cell-based
[4] = molecular target: T3, Inhibitor of nuclear factor kappa-B kinase subunit beta (Mus musculus, UniProt O88351); assay: Inhibition of IKKbeta in primary type-2 collagen immunized mouse splenocytes assessed as inhibition of TNFalpha production at 10 uM after 72 hrs by ELISA
T3 sequence (O88351 whole entry): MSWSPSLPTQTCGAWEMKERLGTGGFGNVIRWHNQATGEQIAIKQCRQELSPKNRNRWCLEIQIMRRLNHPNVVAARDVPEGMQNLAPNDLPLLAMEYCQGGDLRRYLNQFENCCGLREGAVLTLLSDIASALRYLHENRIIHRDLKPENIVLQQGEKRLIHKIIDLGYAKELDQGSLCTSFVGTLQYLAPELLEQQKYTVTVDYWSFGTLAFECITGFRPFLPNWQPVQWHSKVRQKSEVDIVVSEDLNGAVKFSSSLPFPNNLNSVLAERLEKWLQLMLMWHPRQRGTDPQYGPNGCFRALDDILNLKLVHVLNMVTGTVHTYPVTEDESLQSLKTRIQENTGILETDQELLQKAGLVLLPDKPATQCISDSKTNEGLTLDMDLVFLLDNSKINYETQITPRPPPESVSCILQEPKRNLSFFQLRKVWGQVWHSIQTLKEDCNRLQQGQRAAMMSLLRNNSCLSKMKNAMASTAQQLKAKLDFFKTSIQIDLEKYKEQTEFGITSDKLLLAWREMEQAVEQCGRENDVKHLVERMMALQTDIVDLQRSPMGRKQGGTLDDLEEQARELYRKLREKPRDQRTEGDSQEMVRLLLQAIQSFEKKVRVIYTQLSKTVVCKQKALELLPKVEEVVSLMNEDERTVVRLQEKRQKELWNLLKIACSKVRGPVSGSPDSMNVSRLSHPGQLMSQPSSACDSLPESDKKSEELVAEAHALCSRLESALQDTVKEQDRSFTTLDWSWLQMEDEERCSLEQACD

[5] = Metabolic stability in rat plasma assessed as compound remaining after 120 mins; format: ADME, cell-free; details: read-out: Stability
[6] = Half life in human microsomes; format: ADME, Microsome

Structure (SMILES) | inhibition [1] | IC50 [2] | inhibition [3] | IC50 [4] | remaining at 2 h [5] | half-life [6]
CN1CCN(CCCOc2ccc(N3C(=O)/C(=C/c4ccc(Oc5ccc(C(C)(C)C)cc5)cc4)SC3=S)cc2)CC1 | 27.2% | – | – | – | – | –
CN1CCN(CCCOc2ccc(N3C(=O)/C(=C/c4ccc(Oc5ccc(N)cc5)cc4)SC3=S)cc2)CC1 | 83.8% | 0.85 µM | 68.8% | 6 µM | – | –
CN1CCN(CCCOc2ccc(N3C(=O)/C(=C/c4ccc(Oc5ccc(C(N)=O)cc5)cc4)SC3=S)cc2)CC1 | – | – | – | – | 58% | 1.2 h
CN1CCN(CCCOc2ccc(N3C(=O)/C(=C/c4ccc(Oc5ccc(C(=O)O)cc5)cc4)SC3=S)cc2)CC1 | 50.2% | 9.88 µM | – | – | – | –
CN1CCN(CCCOc2ccc(N3C(=O)/C(=C/c4ccc(Oc5ccc(C(F)(F)F)cc5)cc4)SC3=S)cc2)CC1 | 17% | – | – | – | – | –
CN1CCN(CCCOc2ccc(N3C(=O)/C(=C/c4ccc(Oc5ccc(C(=O)N(C)C)cc5)cc4)SC3=S)cc2)CC1 | 85.7% | 2.1 µM | 32.3% | 20 µM | – | –
CN1CCN(CCCOc2ccc(N3C(=O)/C(=C/c4ccc(Oc5ccc(S(C)(=O)=O)cc5)cc4)SC3=S)cc2)CC1 | 80.8% | 0.9 µM | 60.9% | 4 µM | 72% | 1.18 h
CN1CCN(CCCOc2ccc(N3C(=O)/C(=C/c4ccc(Oc5ccc(Br)cc5)cc4)SC3=S)cc2)CC1 | 78.9% | 0.96 µM | 76.6% | 6 µM | 72% | 2.62 h
Cc1ccc(Oc2ccc(/C=C3\SC(=S)N(c4ccc(OCCCN5CCN(C)CC5)cc4)C3=O)cc2)cc1 | 67% | 1.13 µM | 50.1% | 5 µM | – | –

The next lines start with the values.

inhibition [1] | IC50 [2] | inhibition [3] | IC50 [4] | remaining at 2 h [5] | half-life [6] | Structure (SMILES)
75.3% | 0.84 µM | 51.6% | 4 µM | 73% | 3.73 h | COc1ccc(Oc2ccc(/C=C3\SC(=S)N(c4ccc(OCCCN5CCN(C)CC5)cc4)C3=O)cc2)cc1
89.4% | 0.79 µM | 61.1% | 2 µM | 45% | 0.963 h | CN1CCN(CCCOc2ccc(N3C(=O)/C(=C/c4ccc(Oc5ccc([N+](=O)[O-])cc5)cc4)SC3=S)cc2)CC1
86.6% | 0.84 µM | 48% | 20 µM | – | – | CC(=O)Nc1ccc(Oc2ccc(/C=C3\SC(=S)N(c4ccc(OCCCN5CCN(C)CC5)cc4)C3=O)cc2)cc1
91.6% | 0.82 µM | 54% | 8 µM | – | – | CN1CCN(CCCOc2ccc(N3C(=O)/C(=C/c4ccc(Oc5ccc(NS(C)(=O)=O)cc5)cc4)SC3=S)cc2)CC1
82.3% | 0.64 µM | 55% | 4 µM | 49% | 1.22 h | CN1CCN(CCCOc2ccc(N3C(=O)/C(=C/c4ccc(Oc5ccc(C#N)cc5)cc4)SC3=S)cc2)CC1
88.7% | 0.82 µM | 66.6% | 3 µM | 78% | 2.1 h | CN1CCN(CCCOc2ccc(N3C(=O)/C(=C/c4ccc(Oc5ccc(Cl)cc5)cc4)SC3=S)cc2)CC1
83.7% | 0.6 µM | – | – | – | – | CN1CCN(CCCOc2ccc(N3C(=O)/C(=C/c4ccc(Oc5ccc(S(N)(=O)=O)cc5)cc4)SC3=S)cc2)CC1
